Laboratory results from patent publication US9156831B2, “Chemical compounds” (ASTRAZENECA AB, priority 2013, dated 2015).

Columns and labels:
Assay in all cases: Cell proliferation assay (MTS)
[1] = test system: T47D; format: cell-based, human
Protocol: (§1) The sensitivity of a panel of human cancer cell lines to the effects of compounds was determined in a standard proliferation assay.
(§2) Cells were plated in 96 well plates at densities of 1000-6000 cells per well in RPMI media containing 10% FBS. After incubation at 37° C. for 16 hours, various concentrations of compound were added to the assay plates. After incubation for an additional 72 h, the viable cells were determined by the addition of MTS reagent (Promega #3582) to each well for 2 h. MTS is a tetrazolium salt that is bioreduced by metabolically active cells in the presence of an electron coupling reagent to formazan. The formazan product was then quantitated by absorbance at 490 nm, as an indicator of the relative number of live cells. In order to determine the GI50 (concentration at which growth of cells was inhibited by 50%) the relative number of cells present at the time of drug addition was determined by comparison with the MTS readout before the drug was added, and this value was subtracted from the 72 hr value of untreated cells as a measure of cell growth during the assay.

[2] = test system: HRA19; format: cell-based, human
Protocol: (§3) The sensitivity of a panel of human cancer cell lines to the effects of compounds was determined in a standard proliferation assay. Cell lines were sourced through the AstraZeneca Cell Bank.
as §2

[3] = test system: MDAMB453; format: cell-based, human
Protocol: as §3, §2

[4] = test system: JEKO1; format: cell-based, human
Protocol: as §3, §2

[5] = test system: HCC1187; format: cell-based, human
Protocol: as §3, §2

[6] = test system: TCCSUP; format: cell-based, human
Protocol: as §1, §2

[7] = test system: SW948; format: cell-based, human
Protocol: as §1, §2

[8] = test system: REH; format: cell-based, human
Protocol: as §1
(§4) Cells were plated in 96 well plates at densities of 1000-6000 cells per well in RPMI media containing 10% FBS. After incubation at 37° C. for 16 hours, various concentrations of compound were added to the assay plates. After incubation for an additional 72 h, the viable cells were determined by the addition of MTS reagent (Promega #3582) to each well for 2 h. […] The formazan product was then quantitated by absorbance at 490 nm, as an indicator of the relative number of live cells. In order to determine the GI50 (concentration at which growth of cells was inhibited by 50%) the relative number of cells present at the time of drug addition was determined by comparison with the MTS readout before the drug was added, and this value was subtracted from the 72 hr value of untreated cells as a measure of cell growth during the assay.

[9] = test system: SNU216; format: cell-based, human
Protocol: as §1, §4

[10] = test system: PAMC82; format: cell-based, human
Protocol: as §3, §4

[11] = test system: ASPC1; format: cell-based, human
Protocol: as §1, §2

[12] = test system: SW403; format: cell-based, human
Protocol: as §1, §2

[13] = test system: DMS114; format: cell-based, human
Protocol: as §3, §2

[14] = test system: CFPAC1; format: cell-based, human
Protocol: as §3, §2

[15] = test system: SW1710; format: cell-based, human
Protocol: as §1, §4

[16] = test system: 647V; format: cell-based, human
Protocol: as §1, §4

[17] = test system: HS746T; format: cell-based, human
Protocol: as §1, §2

[18] = test system: UMUC3; format: cell-based, human
Protocol: as §1, §2

[19] = test system: SNU638; format: cell-based, human
Protocol: as §3, §2

[20] = test system: JURKAT; format: cell-based, human
Protocol: as §1, §4

[21] = test system: RT4; format: cell-based, human
Protocol: as §1, §4

[22] = test system: H23; format: cell-based, human
Protocol: as §3, §2

[23] = test system: HLE; format: cell-based, human
Protocol: as §1, §4

[24] = test system: BEL7404; format: cell-based, human
Protocol: as §3, §2

[25] = test system: HCA7; format: cell-based, human
Protocol: as §1, §4

[26] = test system: H522; format: cell-based, human
Protocol: as §1, §4

[27] = test system: GTL16; format: cell-based, human
Protocol: as §1, §4

[28] = test system: BT549; format: cell-based, human
Protocol: as §1, §4

[29] = test system: NAMALWA; format: cell-based, human
Protocol: as §1, §4

[30] = test system: LOVO; format: cell-based, human
Protocol: as §1, §2

[31] = test system: MDAMB231; format: cell-based, human
Protocol: as §1, §4

[32] = test system: MIAPACA2; format: cell-based, human
Protocol: as §3, §2

[33] = test system: H526; format: cell-based, human
Protocol: as §1, §2

[34] = test system: H838; format: cell-based, human
Protocol: as §1, §2

[35] = test system: HX147; format: cell-based, human
Protocol: as §3, §2

[36] = test system: JJN3; format: cell-based, human
Protocol: as §1, §2

[37] = test system: JVM3; format: cell-based, human
Protocol: as §1, §2

[38] = test system: MDAMB157; format: cell-based, human
Protocol: as §1, §2

[39] = test system: MEC1; format: cell-based, human
Protocol: as §1, §2

[40] = test system: RPM18226; format: cell-based, human
Protocol: as §1, §4

[41] = test system: SC1; format: cell-based, human
Protocol: as §1, §4

[42] = test system: COLO320DM
Protocol: as §3, §2

[43] = test system: HUH1
Protocol: as §1, §4

[44] = Homo sapiens, Blood/lymph, PIK3CA WT
[45] = Homo sapiens, Stomach, PIK3CA WT
[46] = Homo sapiens, Bladder, PIK3CA WT

CCn1nc(C2CCN(C(=O)CCO)CC2)nc1-c1cnc(N)c(-c2nnc(C(C)(C)C)o2)n1 [Example 3, 1-(4-(5-(5-amino-6-(5-tert-butyl-1,3,4-oxadiazol-2-yl)pyrazin-2-yl)-1-ethyl-1H-1,2,4-triazol-3-yl)piperidin-1-yl)-3-hydroxypropan-1-one]
Category [1]: Sensitive (sensitive (GI50<=1.0 μM))
GI50 ([1]; Homo sapiens, Breast, PIK3CA MUT): 0.198 µM
Category [2]: Sensitive (sensitive (GI50<=1.0 μM))
GI50 ([2]; Homo sapiens, Rectum, PIK3CA MUT): 0.393 µM
Category [3]: Sensitive (sensitive (GI50<=1.0 μM))
GI50 ([3]; Homo sapiens, MDA-MB-453, Breast, PIK3CA MUT): 0.456 µM
Category [4]: Sensitive (sensitive (GI50<=1.0 μM))
GI50 ([4]; Homo sapiens, JeKo-1, Blood/lymph, PIK3CA WT): 0.499 µM
Category [5]: Sensitive (sensitive (GI50<=1.0 μM))
GI50 ([5]; Homo sapiens, Breast, PIK3CA WT): 0.509 µM
Category [6]: Sensitive (sensitive (GI50<=1.0 μM))
GI50 ([6]; Homo sapiens, TCC-SUP, Bladder, PIK3CA MUT): 0.724 µM
Category [7]: Sensitive (sensitive (GI50<=1.0 μM))
GI50 ([7]; Homo sapiens, Colon, PIK3CA MUT): 0.911 µM
Category [8]: Resistant (resistant (GI50>1.0 μM))
GI50 [8, 44]: 1.05 µM
Category [9]: Resistant (resistant (GI50>1.0 μM))
GI50 ([9]; Homo sapiens, SNU-216, Stomach, PIK3CA WT): 1.07 µM
Category [10]: Resistant (resistant (GI50>1.0 μM))
GI50 [10, 45]: 1.37 µM
Category [11]: Resistant (resistant (GI50>1.0 μM))
GI50 ([11]; Homo sapiens, Pancreas, PIK3CA WT): 1.74 µM
Category [12]: Resistant (resistant (GI50>1.0 μM))
GI50 ([12]; Homo sapiens, SW-403, Colon, PIK3CA MUT): 2.61 µM
Category [13]: Resistant (resistant (GI50>1.0 μM))
GI50 ([13]; Homo sapiens, DMS-114, Lung, PIK3CA WT): 3.29 µM
Category [14]: Resistant (resistant (GI50>1.0 μM))
GI50 ([14]; Homo sapiens, CFPAC-1, Pancreas, PIK3CA WT): 3.38 µM
Category [15]: Resistant (resistant (GI50>1.0 μM))
GI50 [15, 46]: 5.34 µM
Category [16]: Resistant (resistant (GI50>1.0 μM))
GI50 [16, 46]: 5.46 µM
Category [17]: Resistant (resistant (GI50>1.0 μM))
GI50 [17, 45]: 5.98 µM
Category [18]: Resistant (resistant (GI50>1.0 μM))
GI50 [18, 46]: 6.22 µM
Category [19]: Resistant (resistant (GI50>1.0 μM))
GI50 ([19]; Homo sapiens, SNU-638, Stomach, PIK3CA WT): 8.22 µM
Category [20]: Resistant (resistant (GI50>1.0 μM))
GI50 [20, 44]: 8.69 µM
Category [21]: Resistant (resistant (GI50>1.0 μM))
GI50 ([21]; Homo sapiens, RT-4, Bladder, PIK3CA WT): 8.94 µM
Category [22]: Resistant (resistant (GI50>1.0 μM))
GI50 ([22]; Homo sapiens, NCI-H23, Lung, PIK3CA WT): 12.3 µM
Category [23]: Resistant (resistant (GI50>1.0 μM))
GI50 ([23]; Homo sapiens, Liver, PIK3CA WT): 13.5 µM
Category [24]: Resistant (resistant (GI50>1.0 μM))
GI50 ([24]; Homo sapiens, BEL-7404, Liver, PIK3CA WT): 14.9 µM
Category [25]: Resistant (resistant (GI50>1.0 μM))
GI50 ([25]; Homo sapiens, HCA-7, Colon, PIK3CA WT): 15.5 µM
Category [26]: Resistant (resistant (GI50>1.0 μM))
GI50 ([26]; Homo sapiens, NCI-H522, Lung, PIK3CA WT): 15.6 µM
Category [27]: Resistant (resistant (GI50>1.0 μM))
GI50 ([27]; Homo sapiens, GTL 16, Stomach, PIK3CA WT): 17.4 µM
Category [28]: Resistant (resistant (GI50>1.0 μM))
GI50 ([28]; Homo sapiens, BT-549, Breast, PIK3CA WT): 17.4 µM
Category [29]: Resistant (resistant (GI50>1.0 μM))
GI50 [29, 44]: 17.6 µM
Category [30]: Resistant (resistant (GI50>1.0 μM))
GI50 ([30]; Homo sapiens, Colon, PIK3CA WT): 18.6 µM
Category [31]: Resistant (resistant (GI50>1.0 μM))
GI50 ([31]; Homo sapiens, MDA-MB-231, Breast, PIK3CA WT): 23.6 µM
Category [32]: Resistant (resistant (GI50>1.0 μM))
GI50 ([32]; Homo sapiens, MIA PaCa-2, Pancreas, PIK3CA WT): 24.2 µM
Category [33]: Resistant (resistant (GI50>1.0 μM))
GI50 ([33]; Homo sapiens, NCI-H526, Lung, PIK3CA WT): 30 µM
Category [34]: Resistant (resistant (GI50>1.0 μM))
GI50 ([34]; Homo sapiens, NCI-H838, Lung, PIK3CA WT): 30 µM
Category [35]: Resistant (resistant (GI50>1.0 μM))
GI50 ([35]; Homo sapiens, Lung, PIK3CA WT): 30 µM
Category [36]: Resistant (resistant (GI50>1.0 μM))
GI50 ([36]; Homo sapiens, JJN-3, Blood/lymph, PIK3CA WT): 30 µM
Category [37]: Resistant (resistant (GI50>1.0 μM))
GI50 ([37]; Homo sapiens, JVM-3, Blood/lymph, PIK3CA WT): 30 µM
Category [38]: Resistant (resistant (GI50>1.0 μM))
GI50 ([38]; Homo sapiens, MDA-MB-157, Breast, PIK3CA WT): 30 µM
Category [39]: Resistant (resistant (GI50>1.0 μM))
GI50 [39, 44]: 30 µM
Category [40]: Resistant (resistant (GI50>1.0 μM))
GI50 [40, 44]: 30 µM
Category [41]: Resistant (resistant (GI50>1.0 μM))
GI50 ([41]; Homo sapiens, SC-1, Blood/lymph, PIK3CA WT): 30 µM
Category ([42]; COLO320DM): Resistant (resistant (GI50>1.0 μM))
GI50 ([42]; Homo sapiens, COLO 320DM): 2.51 µM
Category ([43]; HUH1): Resistant (resistant (GI50>1.0 μM))
GI50 ([43]; Homo sapiens, HuH-1): 22.3 µM
